Measurements as given in US20040142971A1, “BENZOTHIOPHENE COMPOUNDS HAVING ANTIINFECTIVE ACTIVITY” (GeneSoft, Inc., priority 2001, published 2004).

Key:
Assay in all cases: MIC, NCCLS broth microdilution
B. Cereus ATCC 11778 = type: cell-based, Bacillus cereus; conditions: A = B. Cereus ATCC 11778
From the text: (§1) In vitro biological activity data were collected for a variety of microorganisms, including Bacillus cereus (ATCC 11778), Staphylococcus aureus (ATCC 27660 (a methicillin resistant strain (MRSA), ATCC 33591 and ATCC 43300); ATCC 13709, a methicillin sensitive strain (MSSA)); Streptococcus pneumoniae (ATCC 51422, a penicillin resistant strain (PRSP)), Enterococcus faecium (ATCC 51559, a vancomycin resistant strain (VRE)), and Staphylococcus epidermidis (ATCC 700586, a methycillin resistant strain (MRSE)). Additionally, antifungal activity data were collected for Candida albicans (ATCC 38247). Minimal inhibition concentrations (MIC's) were determined using the National Committee for Clinical Laboratory Standards (NCCLS) broth microdilution assay in microtiter plates, as set forth in: (1) the guidelines of the National Committee for Clinical Laboratory Standards (NCCLS) Document M7-A4 (NCCLS, 1997); (2) the guidelines of the National Committee for Clinical Laboratory Standards (NCCLS) Document M11-A4 (NCCLS, 1997); and (3) the guidelines and reference method of the National Committee for Clinical Laboratory Standards (NCCLS) Document M27-T (NCCLS, 1995). For antifungal essays, the method recommended in Murray, PR., 1995 Manual of Clinical Microbiology (ASM Press, Washington, D.C.), was employed.

[1] = tested on: S. aureus ATCC 13709 (methicillin sensitive strain, MSSA); type: cell-based, Staphylococcus aureus; conditions: C = S. aureus ATCC 13709
From the text: as §1

[2] = tested on: S. aureus ATCC 27660 (methicillin resistant strain, MRSA); type: cell-based, Staphylococcus aureus; conditions: D = S. aureus ATCC 27660
From the text: as §1

S. aureus ATCC 33591 = type: cell-based, Staphylococcus aureus; conditions: E = S. aureus ATCC 33591
From the text: as §1

SMILES	Minimum Inhibitory Concentration (MIC) (B. Cereus ATCC 11778)	Minimum Inhibitory Concentration (MIC) [1]	Minimum Inhibitory Concentration (MIC) [2]	Minimum Inhibitory Concentration (MIC) (S. aureus ATCC 33591)
Cn1cc(NC(=O)c2cc(NC(=O)c3sc4ccccc4c3Cl)cn2C)cc1C(=O)NCCN1CCC(O)CC1 [Ib-20a]	+++ (+++ = MIC ≦ 4)	+++ (+++ = MIC ≦ 4)	+++ (+++ = MIC ≦ 4)	–
Cn1cc(NC(=O)c2cc(NC(=O)c3cc(NC(=O)c4sc5ccccc5c4Cl)cn3C)cn2C)cc1C(=O)NCC[N+]1(C)CCOCC1 [Ib-20b]	+++ (+++ = MIC ≦ 4)	+++ (+++ = MIC ≦ 4)	+++ (+++ = MIC ≦ 4)	+++ (+++ = MIC ≦ 4)
Cc1ccc2c(Cl)c(C(=O)Nc3cc(C(=O)Nc4cc(C(=O)Nc5cc(C(=O)NCCN6CCOCC6)n(C)c5)n(C)c4)n(C)c3)sc2c1 [Ib-20c]	+++ (+++ = MIC ≦ 4)	+++ (+++ = MIC ≦ 4)	+++ (+++ = MIC ≦ 4)	+++ (+++ = MIC ≦ 4)
Cn1cc(NC(=O)c2sc3cc4c(cc3c2Cl)OCO4)cc1C(=O)NCCN1CCOCC1 [Ib-20f]	+++ (+++ = MIC ≦ 4)	+++ (+++ = MIC ≦ 4)	+++ (+++ = MIC ≦ 4)	+++ (+++ = MIC ≦ 4)
CCN(CC)CCNC(=O)c1cc(NC(=O)c2cc(NC(=O)c3cc(NC(=O)c4sc5cc6c(cc5c4Cl)OCO6)cn3C)cn2C)cn1C [Ib-20h]	+++ (+++ = MIC ≦ 4)	+++ (+++ = MIC ≦ 4)	+++ (+++ = MIC ≦ 4)	+++ (+++ = MIC ≦ 4)
Cn1cc(NC(=O)c2cc(NC(=O)c3cc(NC(=O)c4sc5cc6c(cc5c4Cl)OCO6)cn3C)cn2C)cc1C(=O)NCCN1CCSCC1 [Ib-20i]	+++ (+++ = MIC ≦ 4)	+++ (+++ = MIC ≦ 4)	+++ (+++ = MIC ≦ 4)	–
Cn1cc(NC(=O)c2cc(NC(=O)c3cc(NC(=O)c4sc5cc([N+](=O)[O-])ccc5c4Cl)cn3C)cn2C)cc1C(=O)NCCN1CCOCC1 [Ib-20j]	+++ (+++ = MIC ≦ 4)	+++ (+++ = MIC ≦ 4)	+++ (+++ = MIC ≦ 4)	+++ (+++ = MIC ≦ 4)
CN(C)c1ccc2c(Cl)c(C(=O)Nc3cc(C(=O)Nc4cc(C(=O)Nc5cc(C(=O)NCCN6CCOCC6)n(C)c5)n(C)c4)n(C)c3)sc2c1 [Ib-20k]	>32 µg/mL	+++ (+++ = MIC ≦ 4)	+++ (+++ = MIC ≦ 4)	–
Cn1cc(NC(=O)c2cc(NC(=O)c3cc(NC(=O)c4sc5cc6c(cc5c4Cl)OCO6)cn3C)cn2C)cc1C(=O)NCCN1CCCCC1 [Ib-20l]	+++ (+++ = MIC ≦ 4)	+++ (+++ = MIC ≦ 4)	+++ (+++ = MIC ≦ 4)	+++ (+++ = MIC ≦ 4)
Cn1cc(NC(=O)c2sc3cc4c(cc3c2Cl)OCO4)cc1C(=O)NCCN1CCCCC1 [Ib-20n]	+++ (+++ = MIC ≦ 4)	+++ (+++ = MIC ≦ 4)	+++ (+++ = MIC ≦ 4)	+++ (+++ = MIC ≦ 4)
Cn1cc(NC(=O)c2sc3cc4c(cc3c2Cl)OCO4)cc1C(=O)NCCN1CCC(F)(F)CC1 [Ib-20q]	>32 µg/mL	+++ (+++ = MIC ≦ 4)	+++ (+++ = MIC ≦ 4)	+++ (+++ = MIC ≦ 4)
Cn1cc(NC(=O)c2cc3cc4c(cc3s2)OCO4)cc1C(=O)NCCN1CCOCC1 [Ib-20t]	+++ (+++ = MIC ≦ 4)	+++ (+++ = MIC ≦ 4)	+++ (+++ = MIC ≦ 4)	+++ (+++ = MIC ≦ 4)
Cn1cc(NC(=O)c2cc(NC(=O)c3cc4cc5c(cc4s3)OCO5)cn2C)cc1C(=O)NCCN1CCOCC1 [Ib-20u]	+++ (+++ = MIC ≦ 4)	+++ (+++ = MIC ≦ 4)	+++ (+++ = MIC ≦ 4)	+++ (+++ = MIC ≦ 4)
